Laboratory results reported in patent US20100041089A1, “IMPROVED METHOD FOR DETECTING CHEMICAL […]” (priority 2006, published 2010).

Test system: yeast genes (expressed mRNA)
Experiment: DNA chip measurement of expressed mRNA of yeast genes after culture with a toxic chemical substance
Type: cell-based, Saccharomyces cerevisiae S288C
Method in brief: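 Fluorescence ratio, treated over untreated, read by chip scanner; ratio of two or more counted significant. Cells: S288C yeast, YPD, 25° C, chemical added at log phase for 2 h at growth-inhibiting, sublethal level. Cy3/Cy5-labeled cDNA from oligo-dT-purified mRNA.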

SMILES: CN(C)C(=S)SSC(=S)N(C)C [(10), Tetramethylthiuram disulfide]
- The level of expressed mRNA in the presence of chemical substance/The level of expressed mRNA in the absence of chemical substance (yeast gene YNL077W): 5.1
- The level of expressed mRNA in the presence of chemical substance/The level of expressed mRNA in the absence of chemical substance (yeast gene YNL092W, cultured two hours with substance): 1.5
- The level of expressed mRNA in the presence of chemical substance/The level of expressed mRNA in the absence of chemical substance (yeast gene YNL115C, cultured two hours with substance): 1.9
- The level of expressed mRNA in the presence of chemical substance/The level of expressed mRNA in the absence of chemical substance (yeast gene YNL156C, cultured two hours with substance): 1.9
- The level of expressed mRNA in the presence of chemical substance/The level of expressed mRNA in the absence of chemical substance (yeast gene YNL190W, cultured two hours with substance): 1.1
- The level of expressed mRNA in the presence of chemical substance/The level of expressed mRNA in the absence of chemical substance (yeast gene YNL195C, cultured two hours with the chemical substance): 11.7
- The level of expressed mRNA in the presence of chemical substance/The level of expressed mRNA in the absence of chemical substance (yeast gene YNL208W, cultured two hours with substance): 3.1
- The level of expressed mRNA in the presence of chemical substance/The level of expressed mRNA in the absence of chemical substance (yeast gene YNL234W, cultured two hours with substance): 3.3
- The level of expressed mRNA in the presence of chemical substance/The level of expressed mRNA in the absence of chemical substance (yeast gene YNL277W): 10.9
- The level of expressed mRNA in the presence of chemical substance/The level of expressed mRNA in the absence of chemical substance (yeast gene YNL281W, cultured two hours with substance): 1.6
- The level of expressed mRNA in the presence of chemical substance/The level of expressed mRNA in the absence of chemical substance (yeast gene YNL300W, cultured two hours with substance): 0.2
- The level of expressed mRNA in the presence of chemical substance/The level of expressed mRNA in the absence of chemical substance (yeast gene YNL305C, cultured two hours with substance): 2.1
- The level of expressed mRNA in the presence of chemical substance/The level of expressed mRNA in the absence of chemical substance (yeast gene YNL331C): 36.3
- The level of expressed mRNA in the presence of chemical substance/The level of expressed mRNA in the absence of chemical substance (yeast gene YNL331C, cultured for two hours with substance): 36.3
- The level of expressed mRNA in the presence of chemical substance/The level of expressed mRNA in the absence of chemical substance (yeast gene YNR064C, cultured two hours with substance): 2.1
- The level of expressed mRNA in the presence of chemical substance/The level of expressed mRNA in the absence of chemical substance (yeast gene YNR068C, cultured two hours with substance): 14.4
- The level of expressed mRNA in the presence of chemical substance/The level of expressed mRNA in the absence of chemical substance (yeast gene YNR073C): 16.8
- The level of expressed mRNA in the presence of chemical substance/The level of expressed mRNA in the absence of chemical substance (yeast gene YOL002C, cultured two hours with the substance): 0.3
- The level of expressed mRNA in the presence of chemical substance/The level of expressed mRNA in the absence of chemical substance (yeast gene YOL032W, cultured two hours with substance): 3.0
- The level of expressed mRNA in the presence of chemical substance/The level of expressed mRNA in the absence of chemical substance (yeast gene YOL036W, cultured two hours with substance): 2.8
- The level of expressed mRNA in the presence of chemical substance/The level of expressed mRNA in the absence of chemical substance (yeast gene YOL047C, cultured two hours with substance): 2.3
- The level of expressed mRNA in the presence of chemical substance/The level of expressed mRNA in the absence of chemical substance (yeast gene YOL058W): 15.7
- The level of expressed mRNA in the presence of chemical substance/The level of expressed mRNA in the absence of chemical substance (yeast gene YOL071W, cultured two hours with substance): 2.3
- The level of expressed mRNA in the presence of chemical substance/The level of expressed mRNA in the absence of chemical substance (yeast gene YOL082W, cultured two hours with substance): 2.0
- The level of expressed mRNA in the presence of chemical substance/The level of expressed mRNA in the absence of chemical substance (yeast gene YOL083W, cultured two hours with substance): 2.3
- The level of expressed mRNA in the presence of chemical substance/The level of expressed mRNA in the absence of chemical substance (yeast gene YOL101C, cultured two hours with substance): 0.3
- The level of expressed mRNA in the presence of chemical substance/The level of expressed mRNA in the absence of chemical substance (yeast gene YOL117W, cultured two hours with substance): 4.1
- The level of expressed mRNA in the presence of chemical substance/The level of expressed mRNA in the absence of chemical substance (yeast gene YOL131W, cultured two hours with substance): 8.1
- The level of expressed mRNA in the presence of chemical substance/The level of expressed mRNA in the absence of chemical substance (yeast gene YOL150C, cultured two hours with substance): 8.3
- The level of expressed mRNA in the presence of chemical substance/The level of expressed mRNA in the absence of chemical substance (yeast gene YOL162W, cultured two hours with substance): 6.8
- The level of expressed mRNA in the presence of chemical substance/The level of expressed mRNA in the absence of chemical substance (yeast gene YOL163W (transport facilitation protein gene)): 6.2
- The level of expressed mRNA in the presence of chemical substance/The level of expressed mRNA in the absence of chemical substance (yeast gene YOL165C): 23.3
- The level of expressed mRNA in the presence of chemical substance/The level of expressed mRNA in the absence of chemical substance (yeast gene YOL165C, cultured for two hours with substance): 23.3
- The level of expressed mRNA in the presence of chemical substance/The level of expressed mRNA in the absence of chemical substance (yeast gene YOR019W, cultured two hours with substance): 7.1
- The level of expressed mRNA in the presence of chemical substance/The level of expressed mRNA in the absence of chemical substance (yeast gene YOR197W, cultured two hours with substance): 0.7
- The level of expressed mRNA in the presence of chemical substance/The level of expressed mRNA in the absence of chemical substance (yeast gene YOR248W, cultured two hours with substance): 0.4
- The level of expressed mRNA in the presence of chemical substance/The level of expressed mRNA in the absence of chemical substance (yeast gene YOR382W, cultured two hours with substance): 12.8
- The level of expressed mRNA in the presence of chemical substance/The level of expressed mRNA in the absence of chemical substance (yeast gene YOR383C): 4.5
- The level of expressed mRNA in the presence of chemical substance/The level of expressed mRNA in the absence of chemical substance (yeast gene YOR391C, cultured two hours with substance): 18.1
- The level of expressed mRNA in the presence of chemical substance/The level of expressed mRNA in the absence of chemical substance (yeast gene YPL017C, metabolism protein genes): 6.7
- The level of expressed mRNA in the presence of chemical substance/The level of expressed mRNA in the absence of chemical substance (yeast gene YPL052W, cultured two hours with substance): 4.8
- The level of expressed mRNA in the presence of chemical substance/The level of expressed mRNA in the absence of chemical substance (yeast gene YPL087W, cultured two hours with substance): 2.2
- The level of expressed mRNA in the presence of chemical substance/The level of expressed mRNA in the absence of chemical substance (yeast gene YPL171C, cultured for two hours with substance): 50.6
- The level of expressed mRNA in the presence of chemical substance/The level of expressed mRNA in the absence of chemical substance (yeast gene YPL196W, cultured two hours with substance): 2.8
- The level of expressed mRNA in the presence of chemical substance/The level of expressed mRNA in the absence of chemical substance (yeast gene YPL206C, cultured two hours with substance): 1.1
- The level of expressed mRNA in the presence of chemical substance/The level of expressed mRNA in the absence of chemical substance (yeast gene YPL222W, cultured two hours with substance): 3.4
- The level of expressed mRNA in the presence of chemical substance/The level of expressed mRNA in the absence of chemical substance (yeast gene YPL223C (stress protein genes)): 16.5
- The level of expressed mRNA in the presence of chemical substance/The level of expressed mRNA in the absence of chemical substance (yeast gene YPR023C, cultured two hours with substance): 2.8
- The level of expressed mRNA in the presence of chemical substance/The level of expressed mRNA in the absence of chemical substance (yeast gene YPR079W, cultured two hours with substance): 2.8
- The level of expressed mRNA in the presence of chemical substance/The level of expressed mRNA in the absence of chemical substance (yeast gene YPR151C, cultured two hours with substance): 9.5
